Results from patent publication US20150087627A1, “COMBINATION OF KINASE INHIBITORS AND USES THEREOF” (Intellikine LLC, priority 2011, published 2015).
Where “and” joins values, the source holds several entries; their conditions need not be identical. Identical values can stand only once. Values belong to the compound of their own block, whether it stands above or below them.

Key:
PC3 cells = test: Proliferation of tumor cells (CellTiter-Glo); type: cell-based, human; conditions: read-out: cell proliferation IC50
Procedure: Cells comprising one or more mutations in PI3Kα, including but not limited to breast cancer cells (e.g., MDA-MB-361, T47D, SKOV-3), and cells comprising one or more mutations in PTEN including but not limited to prostate cancer cells (e.g., PC3), are typically grown in cell growth media such as DMEM supplemented with fetal bovine serum and/or antibiotics, and grown to confluency. Cells are then treated with various concentrations of test compound for about 2 hours and subsequently lysed in cell lysis buffer. Lysates are subjected to SDS-PAGE followed by Western blot analysis to detect downstream signaling markers, including but not limited to pAKT(S473), pAKT(T308), pS6, and p4E-BP1.
Cells were seeded at 5000-10,000 per well in a 96 well flat bottom plate 90 ul growth media. Pre-diluted compound (at 10 times the final concentration) or DMSO (control) was added. The compounds were prepared such that the dose range extended from a final concentration of 30 μM to 14 nM via 3-fold serial dilutions (8 point curve). The final DMSO concentration was 0.3%. Cells were incubated for 72 hours at 37° C. in a CO2 incubator. After 72 hours, proliferation was measured using CellTiter-Glo Luminescent reagent (Promega, PR-G7573). […] Luminescence was read on a PerkinElmer EnVision plate reader. […] Inhibition % was calculated as: 1−(cells+inhibitor)−background signal)/(cells+DMSO)−background signal)×100.

[1] = Plasma insulin in nude mice (Example 41); type: in vivo, Mus musculus; conditions: 120 minutes after the last dose (Day 28)
Procedure: Insulin was measured using Mesoscale Discovery's Mouse/Rat Insulin Kit (Rockville, Md., USA). Plasma samples collected at 120 minutes post last dose were thawed on ice and reagents from the kit were brought to room temperature. 150 μL of Blocker A Solution was added to each well, the plates were covered, and then incubated on a plate shaker (300-1000 rpm) for 1 hour at room temperature. After the first incubation, the wells were washed three times with phosphate buffered saline+Tween 20 (PBS-T), and then 40 μL of 1× Detection Antibody Solution followed by 10 μL of unknown neat samples or standards were added to the wells in duplicate. The plate was then covered and incubated on a plate shaker (300-1000 rpm) for 2 hours at room temperature. Following the second incubation, the wells were washed three times with PBS-T, and then 150 μL of 1× Read Buffer T was added to each well. The plates were immediately analyzed on the SECTOR Imager using the MSD Discovery Workbench software (Meso Scale Discovery). A 4-parameter logisitic model was utilized by the software to determine the concentrations of the unknown samples based on the standard curve it generated.

KRAS/PIK3CA colon model = KRAS/PIK3CA colon model (FIG. 19); type: in vivo
[2] = system: MDA-MB-361 human breast cancer xenografts; test: Antitumor activity and tumor regrowth, MDA-MB-361 xenografts (Example 42); type: in vivo, Mus musculus; conditions: for MTV on Day 65: n = 4; for % TGI on Day 65: based on the control group on Day 65; for TGI: Day 29
Procedure: (room temperature), shielded from light. The test article Compound A was prepared in 5% NMP+95% PEG400 every 5 to 7 days and stored at approximately 25° C. (room temperature), shielded from light. The control article used in this study was 5% NMP+95% PEG400. Compounds were completely dissolved in NMP by sonication, followed by the addition of an appropriate volume of PEG400, and the final solution was vortexed and sonicated to ensure thorough mixing.
Low-passage MDA-MB-361 cells were grown in Eagle's Minimal Essential Medium (EMEM) media supplemented with 20% fetal bovine serum (FBS) and 1× penicillin/streptomycin (Invitrogen, Carlsbad, Calif., USA) until approximately 80% confluency was reached. Before injection, the cells were detached with GIBCO® trypsin (Invitrogen), washed twice with phosphate-buffered saline (PBS), and resuspended in Roswell Park Memorial Institute (RPMI) media (Invitrogen) without supplements. Cells were resuspended to a final concentration of 5×10^7 cells/mL in RPMI media without supplements. MDA-MB-361 cells (5.0×10^6 cells/animal in 0.1-mL injection volume) were implanted SC into the flank of female athymic nu/nu nude mice. The animals used in this study are described in the following table.
Female 5 to 6-week old female (athymic nu/nu) nude mice were inoculated SC in the flank with 5.0×10^6 MDA-MB-361 cells. Tumor growth was monitored with vernier calipers. The MTV was calculated using the formula V=W^2×L÷2. When the MTV reached approximately 235 mm^3, the animals were randomized into 4 treatment groups (n=8/group). Treatment started on Day 0. […] Tumor growth and body weight were measured twice weekly. Percent TGI and body weight change were calculated on Day 29. Four mice from each group were euthanized on Day 29 and tissues were harvested for pharmacodynamic studies. The remaining mice continued on study until Day 65, and tumor size and body weight in these mice were measured every 9 to 11 days.
Antitumor activity was determined by calculating the percent TGI using Equation 1: Percent TGI)=(MTV of the control group−MTV of a treated group) MTV of the control group×100
Tumor growth delay was determined by calculating the time until MTV in a given treatment group reached 1000 mm^3 versus the time until MTV in the control group reached 1000 mm^3.
The differences in trends of tumor growth over time between pairs of treatment groups were assessed using linear mixed-effects regression models. These models account for the fact that each animal was measured at multiple time points. A separate model was fit for each comparison, and the AUC for each treatment group was calculated using the predicted values from the model. The percent decrease in AUC (ΔAUC) relative to the reference group was then calculated.
A statistical analysis was performed with a linear mixed-effects regression model that takes into account the differences in trends of tumor growth between control and treated samples. Differences among mice were treated as random effects, and a compound symmetry covariance structure was used to model the variability between repeated tumor measurements for each mouse. Treatment comparisons were performed by using the fitted curves from the model to calculate the ΔAUC. The significance of the ΔAUC was assessed using permutation testing. All p values less than 0.05 were considered significant.
A combination score calculation was used to address the question of whether the effects of the combination treatments were more than additive (synergistic), additive, or subadditive (antagonistic) relative to the individual treatments. […] All p values less than 0.05 were considered significant.

[3] = system: Akt phosphorylation at serine 473; test: Western blot of Akt phosphorylation at serine 473 (FIG. 12); type: cell-based

Structure (SMILES): Nc1nc2cc(-c3ccc4ncc(C(=O)N5CCOCC5)n4c3)ccc2o1 [Compound A]
IC50 (PC3 cells): > 10 µM | Mean Plasma Insulin at 2 hr. ([1]; 60 mg/kg QD): 0.7 ng/mL | Plasma Insulin Fold Over Control ([1]; 60 mg/kg QD): 1.47 fold | Mean Plasma Insulin at 2 hr. ([1]; 70 mg/kg QD 3on/4off): 1.51 ng/mL | Plasma Insulin Fold Over Control ([1]; 70 mg/kg QD 3on/4off): 3.16 fold | Mean Plasma Insulin at 2 hr. ([1]; 140 mg/kg QD 3on/4off): 2.39 ng/mL | Plasma Insulin Fold Over Control ([1]; 140 mg/kg QD 3on/4off): 5.01 fold | Mean Plasma Insulin at 2 hr. ([1]; 210 mg/kg QW): 3.96 ng/mL | Plasma Insulin Fold Over Control ([1]; 210 mg/kg QW): 8.29 fold | activity in a KRAS/PIK3CA colon model (KRAS/PIK3CA colon model): not effective | MTV on Day 65 ([2]; 60 mg/kg PO QD until Day 29, regrowth): 500 mm^3 and 511.4 ± 568^ mm^3 | % TGI on Day 65 ([2]; 60 mg/kg PO QD until Day 29): 69.5% | TGI ([2]; 60.0 mg/kg PO QD): 77.4% | Akt phosphorylation at serine 473 ([3]; PTEN-mutant cell line, FIG. 12B): reduced inhibition of Akt phosphorylation at serine 473 | Akt phosphorylation at serine 473 ([3]; western blot, FIG. 12A): inhibition of Akt phosphorylation at serine 473

Mean Plasma Insulin at 2 hr. ([1]; 0.3 mg/kg QD): 3.74 ng/mL | Mean Plasma Insulin at 2 hr. ([1]; 1.0 mg/kg QD 3on/4off): 2.83 ng/mL | Mean Plasma Insulin at 2 hr. ([1]; 3.0 mg/kg QW): 5.94 ng/mL
Structure (SMILES): CC(C)n1nc(-c2ccc3oc(N)nc3c2)c2c(N)ncnc21 [Compound B]
activity in a KRAS/PIK3CA colon model (KRAS/PIK3CA colon model): not effective | TGI ([2]; 0.3 mg/kg PO QD for 30 days): 71.1% | MTV on Day 65 ([2]; 0.3 mg/kg PO QD until Day 29, regrowth): 649.6 ± 457.7 mm^3 | % TGI on Day 65 ([2]; 0.3 mg/kg PO QD until Day 29): 61.3% | MTV on Day 29 ([2]; 0.3 mg/kg PO QD, n = 8): 210.9 mm^3 and 210.9 ± 103.3 mm^3
